The record followed here is patent US20210277003A1, “OGA INHIBITOR COMPOUNDS” (Janssen Pharmaceutica NV, priority 2018, published 2021).

The target in assay [1] is T1, recombinant human Meningioma Expressed Antigen 5 (MGEA5), also referred to as O-GlcNAcase (OGA) (Homo sapiens, UniProt O60502).
T1 construct: Full length OGA enzyme was purchased at OnGene (cat #TP322411); purchased OnGene (so in the source)
T1 sequence (O60502 1-916): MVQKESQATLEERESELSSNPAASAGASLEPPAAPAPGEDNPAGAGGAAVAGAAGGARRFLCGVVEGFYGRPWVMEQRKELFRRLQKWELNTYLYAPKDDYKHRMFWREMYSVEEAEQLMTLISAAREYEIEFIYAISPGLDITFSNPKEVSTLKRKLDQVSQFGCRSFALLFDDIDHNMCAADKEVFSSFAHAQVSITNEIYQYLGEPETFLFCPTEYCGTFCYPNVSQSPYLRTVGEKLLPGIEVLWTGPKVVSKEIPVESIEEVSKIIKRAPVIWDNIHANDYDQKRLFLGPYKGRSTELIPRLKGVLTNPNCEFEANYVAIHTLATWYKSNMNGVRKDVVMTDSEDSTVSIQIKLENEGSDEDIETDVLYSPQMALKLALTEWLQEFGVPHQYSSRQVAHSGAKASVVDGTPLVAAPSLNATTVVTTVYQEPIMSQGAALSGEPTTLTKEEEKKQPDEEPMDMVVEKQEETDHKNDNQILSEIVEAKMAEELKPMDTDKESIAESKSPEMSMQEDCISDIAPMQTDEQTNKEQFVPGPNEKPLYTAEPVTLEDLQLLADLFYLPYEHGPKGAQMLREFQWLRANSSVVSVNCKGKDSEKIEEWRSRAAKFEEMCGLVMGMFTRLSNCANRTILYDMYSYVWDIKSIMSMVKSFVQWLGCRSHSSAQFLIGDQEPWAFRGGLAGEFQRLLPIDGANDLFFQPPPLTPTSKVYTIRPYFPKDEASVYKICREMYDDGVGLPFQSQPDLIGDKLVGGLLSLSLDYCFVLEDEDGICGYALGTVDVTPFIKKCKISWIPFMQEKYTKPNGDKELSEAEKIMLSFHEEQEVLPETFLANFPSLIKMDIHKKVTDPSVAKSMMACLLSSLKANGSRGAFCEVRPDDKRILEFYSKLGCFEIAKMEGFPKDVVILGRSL
The experiment in a line: OGA biochemical assay: inhibition of hydrolysis of fluorescein mono-ß-D-N-Acetyl-Glucosamine (FM-GlcNAc), fluorescence readout. The conditions noted are these: FM-GlcNAc substrate; for Emax: read-out: Enzymatic Emax (%); for IC50: read-out: Enzymatic hOGA, pIC50 (converted). The source says: The assay is based on the inhibition of the hydrolysis of fluorescein mono-ß-D-N-Acetyl-Glucosamine (FM-GlcNAc) (Mariappa et al. 2015, Biochem J 470:255) by the recombinant human Meningioma Expressed Antigen 5 (MGEA5), also referred to as O-GlcNAcase (OGA). The hydrolysis FM-GlcNAc (Marker Gene technologies, cat #M1485) results in the formation of ß-D-N-glucosamineacetate and fluorescein. The fluorescence of the latter can be measured at excitation wavelength 485 nm and emission wavelength 538 nm. An increase in enzyme activity results in an increase in fluorescence signal. Full length OGA enzyme was purchased at OnGene (cat #TP322411). The enzyme was stored in 25 mM Tris.HCl, pH 7.3, 100 mM glycine, 10% glycerol at −20° C. Thiamet G and GlcNAcStatin were tested as reference compounds (Yuzwa et al. 2008 Nature Chemical Biology 4:483; Yuzwa et al. 2012 Nature Chemical Biology 8:393). The assay was performed in 200 mM Citrate/phosphate buffer supplemented with 0.005% Tween-20. 35.6 g Na2HPO4 2 H2O (Sigma, #C0759) were dissolved in 1 L water to obtain a 200 mM solution. 19.2 g citric acid (Merck, #1.06580) was dissolved in 1 L water to obtain a 100 mM solution. pH of the sodium phosphate solution was adjusted with the citric acid solution to 7.2. The buffer to stop the reaction consists of a 500 mM Carbonate buffer, pH 11.0. 734 mg FM-GlcNAc were dissolved in 5.48 mL DMSO to obtain a 250 mM solution and was stored at −20° C. OGA was used at a 2 nM concentration and FM-GlcNAc at a 100 uM final concentration. Dilutions were prepared in assay buffer. 50 nl of a compound dissolved in DMSO was dispensed on Black Proxiplate™ 384 Plus Assay plates (Perkin Elmer, #6008269) and 3 μl fl-OGA enzyme mix added subsequently. Plates were pre-incubated for 60 min at room temperature and then 2 μl FM-GlcNAc substrate mix added. […] Plates were briefly centrifuged for 1 min at 1000 rpm and incubate at room temperature for 6 h. To stop the reaction 5 μl STOP buffer were added and plates centrifuge again 1 min at 1000 rpm. Fluorescence was quantified in the Thermo Scientific Fluoroskan Ascent or the PerkinElmer EnVision with excitation wavelength 485 nm and emission wavelength 538 nm. For analysis a best-fit curve is fitted by a minimum sum of squares method. From this an IC50 value and Hill coefficient was obtained. High control (no inhibitor) and low control (saturating concentrations of standard inhibitor) were used to define the minimum and maximum values.

Assay [2] relates to OGA in HEK293 cells inducible for P301L mutant human Tau (isoform 2N4R). The assay can be described thus: OGA cellular assay: immunocytochemical detection of O-GlcNAcylated proteins (CTD110.6 antibody). The conditions noted are these: Homo sapiens, HEK293, 6 h, 6 hours incubation; for Emax: maximum = Thiamet G 200 uM; for EC50: read-out: Cellular hOGA, pEC50 (converted). Format: cell-based. The method, then:
HEK293 cells inducible for P301L mutant human Tau (isoform 2N4R) were established at Janssen. Thiamet-G was used for both plate validation (high control) and as reference compound (reference EC50 assay validation). OGA inhibition is evaluated through the immunocytochemical (ICC) detection of O-GlcNAcylated proteins by the use of a monoclonal antibody (CTD110.6; Cell Signaling, #9875) detecting 0-GlcNAcylated residues as previously described (Dorfmueller et al. 2010 Chemistry & biology, 17:1250). Inhibition of OGA will result in an increase of O-GlcNAcylated protein levels resulting in an increased signal in the experiment. Cell nuclei are stained with Hoechst to give a cell culture quality control and a rough estimate of immediate compounds toxicity, if any. ICC pictures are imaged with a Perkin Elmer Opera Phenix plate microscope and quantified with the provided software Perkin Elmer Harmony 4.1.
Cells were propagated in DMEM high Glucose (Sigma, #D5796) following standard procedures. 2 days before the cell assay cells are split, counted and seeded in Poly-D-Lysine (PDL) coated 96-wells (Greiner, #655946) plate at a cell density of 12,000 cells per cm^2 (4,000 cells per well) in 100p of Assay Medium (Low Glucose medium is used to reduce basal levels of GlcNAcylation) (Park et al. 2014 The Journal of biological chemistry 289:13519). At the day of compound test medium from assay plates was removed and replenished with 90 µl of fresh Assay Medium. 10p of compounds at a 10 fold final concentration were added to the wells. Plates were centrifuged shortly before incubation in the cell incubator for 6 hours. DMSO concentration was set to 0.2%. Medium is discarded by applying vacuum. For staining of cells medium was removed and cells washed once with 100 μl D-PBS (Sigma, #D8537). From next step onwards unless other stated assay volume was always 50p and incubation was performed without agitation and at room temperature. Cells were fixed in 50 μl of a 4% paraformaldehyde (PFA, Alpha aesar, #043368) PBS solution for 15 minutes at room temperature. […] Before analysis samples were washed 2 times manually for 5 minutes in ICC base buffer.
Imaging is performed using Perkin Elmer Phenix Opera using a water 20× objective and recording 9 fields per well. Intensity readout at 488 nm is used as a measure of O-GlcNAcylation level of total proteins in wells. To assess potential toxicity of compounds nuclei were counted using the Hoechst staining. IC50-values are calculated using parametric non-linear regression model fitting. As a maximum inhibition Thiamet G at a 200 uM concentration is present on each plate. In addition, a concentration response of Thiamet G is calculated on each plate.

With `Cc1ccnc(C)c1Nc1nccc2c1ccn2CC(F)(F)C1CC1` [Compound 23], in assay [1], the “Enzymatic hOGA; pIC50” value was 8.84 and the Emax is 102%. Further, in assay [2], the Emax came out at 97% and the EC50 is 0.00295 µM.
For the compound `Cc1ccnc(C)c1Nc1nccc2c1ccn2CC1CCO1` (stereo not drawn) [Compound 25], in assay [1], the Emax came to 104% and the IC50 is 0.00479 µM. Besides, in assay [2], the Emax was determined as 89% and the EC50 is 0.038 µM.
`Cc1ccnc(C)c1Nc1nccc2c1ccn2CCC(C)(C)C#N` [Compound 26]: in assay [1], the Emax worked out at 100% and the IC50 was 0.191 µM. For the same compound, in assay [2], the Emax came out at 64% and the EC50 is 0.479 µM.
For `CCC(F)(F)Cn1ccc2c(Nc3c(C)ccnc3C)nccc21` [Compound 27] the same measures were 104%, 0.00224 µM, 112% and 0.00759 µM.
For `CCCCn1c(F)cc2c(Nc3c(C)cncc3C)nccc21` [Compound 31] the same measures were 99%, 0.302 µM, 27% and above 1 µM.
On the same counts, the results for `CCCCn1cc(F)c2c(Nc3c(C)cncc3C)nccc21` [Compound 34] are 99%, 0.178 µM, 36% and above 1 µM.
Take `Clc1cccc(Cl)c1Nc1nccc2c1ccn2CC1COC1` [Compound 35]: in assay [1], the Emax came out at 100% and the IC50 is 0.148 µM. In assay [2], the Emax came to 20% and the EC50 is above 1 µM.
For `Cc1ccnc(C)c1Nc1nccc2c1ccn2CCC1COC1` [Compound 38] the same measures were 100%, 0.115 µM, 63% and 0.562 µM.
On the same counts, the results for `CCCC(C)n1ccc2c(Nc3c(Cl)cccc3Cl)nccc21` (stereo not drawn) [Compound 39] are 102%, 0.0537 µM, 56% and 0.692 µM.
For `COCCn1ccc2c(Nc3c(Cl)cccc3Cl)nccc21` [Compound 40] the same measures were 102%, 0.0813 µM, 30% and above 1 µM.
With `Cc1cncc(C)c1Nc1nccc2c1ccn2CC1CC1` [Compound 41], in assay [1], the Emax came out at 101% and the IC50 was 0.0245 µM. Moreover, in assay [2], the maximal response (Emax) was 71% and the EC50 was 0.0955 µM.
On the same counts, the results for `CCCCn1ccc2c(Nc3c(Cl)cncc3Cl)nccc21` [Compound 42] are 100%, 0.0347 µM, 49% and above 1 µM.
For `CCCCn1ccc2c(Nc3c(F)cncc3C3CC3)nccc21` [Compound 43] the same measures were 99%, 0.024 µM, 50% and 0.676 µM.
On the same counts, the results for `CCCCn1ccc2c(Nc3c(F)cncc3CC)nccc21` [Compound 44] are 100%, 0.0355 µM, 69% and 0.302 µM.
For `CCCCn1ccc2c(Nc3c(C)cc4c(c3C)C(=O)N(C)C4)nccc21` [Compound 45], in assay [1], the Emax worked out at 103% and the IC50 was 0.0105 µM. Also, in assay [2], the Emax was 87% and the EC50 was 0.0166 µM.
Turning to `CCCCn1ccc2c(Nc3c(F)cncc3C(C)C)nccc21` [Compound 46], in assay [1], the Emax is 99% and the IC50 was 0.0178 µM. Further, in assay [2], the Emax was found to be 67% and the EC50 was 0.251 µM.
For `Cc1ccnc(C)c1Nc1nccc2c1ccn2CCC(C)C` [Compound 47] the same measures were 101%, 0.0117 µM, 95% and 0.0479 µM.
For `Cc1cncc(C)c1Nc1nccc2c1ccn2CCC(C)C` [Compound 48] the same measures were 102%, 0.0107 µM, 86% and 0.0309 µM.
On to `Cc1cncc(C)c1Nc1nccc2c1ccn2CCC1CC1` [Compound 49], for which, in assay [1], the Emax came out at 103% and the IC50 is 0.0117 µM. Further, in assay [2], the Emax is 63% and the EC50 is 0.0794 µM.
On the same counts, the results for `N#CCCCn1ccc2c(Nc3c(Cl)cccc3Cl)nccc21` [Compound 50] are 102%, 0.0126 µM, 78% and 0.302 µM.
On to `CCCCn1ccc2c(Nc3c(Cl)ccc4c3OCCO4)nccc21` [Compound 51], for which, in assay [1], the Emax was 102% and the IC50 is 0.0112 µM. In addition, in assay [2], the Emax turned out to be 76% and the EC50 is 0.117 µM.
